{
  "source": "patent US10584127B2",
  "about": "“3,3-difluoropiperidine carbamate heterocyclic compounds as NR2B NMDA receptor antagonists” (Rugen Holdings (Cayman) Limited, priority 2015, dated 2020)",
  "key": {"[1]": {"test_system": "formalin-induced nociceptive behavior", "experiment": "Rat Formalin Model", "format": "in vivo", "conditions": "rat, 10, 30 and 60 mpk i.p., mesylate salt", "experimental": "The rat formalin model is a tonic model of continuous pain resulting from formalin-induced spontaneous nociceptive behaviors. Intra-paw injection of formalin is a commonly used model to measure spontaneous nociceptive behaviors in rodents (Dubuisson, D. and Dennis, S. G. Pain 4:161, 1977). Subcutaneous plantar injection of formalin causes a bi-phasic nocifensive behavioral response in rodents. The early phase (phase-I) lasts for about 5-10 min following which an interphase occurs without any discernible nociceptive reactions after which the late phase (phase-II) nociceptive reaction ensues continuing from about 20-60 min following formalin injection. Formalin model is a model of tonic, persistent pain, and is widely used for rapid screening of novel analgesic compounds. […] In the present example, effects of test item were assessed in 0-5 minutes from the early phase (phase-I) and 20-35 minutes from the late phase (phase-II) of formalin-induced nociceptive behavior. […]\nFor all groups, animals were acclimated to the observation chamber for 15 minutes immediately prior to formalin injection. All animals received an intraplantar subcutaneous injection of 50 μL of 5% formalin into the left hind paw and then placed immediately into an observation chamber and formalin-evoked spontaneous nociceptive behaviors in the rats were continuously recorded for 0-60 min using a commercial camcorder. […]"}, "cloned human NR1/NR2A": {"molecular_target": "cloned human NR1/NR2A (Homo sapiens (Human), UniProt Q12879)", "sequence (Q12879 23-1464, other chains not shown)": "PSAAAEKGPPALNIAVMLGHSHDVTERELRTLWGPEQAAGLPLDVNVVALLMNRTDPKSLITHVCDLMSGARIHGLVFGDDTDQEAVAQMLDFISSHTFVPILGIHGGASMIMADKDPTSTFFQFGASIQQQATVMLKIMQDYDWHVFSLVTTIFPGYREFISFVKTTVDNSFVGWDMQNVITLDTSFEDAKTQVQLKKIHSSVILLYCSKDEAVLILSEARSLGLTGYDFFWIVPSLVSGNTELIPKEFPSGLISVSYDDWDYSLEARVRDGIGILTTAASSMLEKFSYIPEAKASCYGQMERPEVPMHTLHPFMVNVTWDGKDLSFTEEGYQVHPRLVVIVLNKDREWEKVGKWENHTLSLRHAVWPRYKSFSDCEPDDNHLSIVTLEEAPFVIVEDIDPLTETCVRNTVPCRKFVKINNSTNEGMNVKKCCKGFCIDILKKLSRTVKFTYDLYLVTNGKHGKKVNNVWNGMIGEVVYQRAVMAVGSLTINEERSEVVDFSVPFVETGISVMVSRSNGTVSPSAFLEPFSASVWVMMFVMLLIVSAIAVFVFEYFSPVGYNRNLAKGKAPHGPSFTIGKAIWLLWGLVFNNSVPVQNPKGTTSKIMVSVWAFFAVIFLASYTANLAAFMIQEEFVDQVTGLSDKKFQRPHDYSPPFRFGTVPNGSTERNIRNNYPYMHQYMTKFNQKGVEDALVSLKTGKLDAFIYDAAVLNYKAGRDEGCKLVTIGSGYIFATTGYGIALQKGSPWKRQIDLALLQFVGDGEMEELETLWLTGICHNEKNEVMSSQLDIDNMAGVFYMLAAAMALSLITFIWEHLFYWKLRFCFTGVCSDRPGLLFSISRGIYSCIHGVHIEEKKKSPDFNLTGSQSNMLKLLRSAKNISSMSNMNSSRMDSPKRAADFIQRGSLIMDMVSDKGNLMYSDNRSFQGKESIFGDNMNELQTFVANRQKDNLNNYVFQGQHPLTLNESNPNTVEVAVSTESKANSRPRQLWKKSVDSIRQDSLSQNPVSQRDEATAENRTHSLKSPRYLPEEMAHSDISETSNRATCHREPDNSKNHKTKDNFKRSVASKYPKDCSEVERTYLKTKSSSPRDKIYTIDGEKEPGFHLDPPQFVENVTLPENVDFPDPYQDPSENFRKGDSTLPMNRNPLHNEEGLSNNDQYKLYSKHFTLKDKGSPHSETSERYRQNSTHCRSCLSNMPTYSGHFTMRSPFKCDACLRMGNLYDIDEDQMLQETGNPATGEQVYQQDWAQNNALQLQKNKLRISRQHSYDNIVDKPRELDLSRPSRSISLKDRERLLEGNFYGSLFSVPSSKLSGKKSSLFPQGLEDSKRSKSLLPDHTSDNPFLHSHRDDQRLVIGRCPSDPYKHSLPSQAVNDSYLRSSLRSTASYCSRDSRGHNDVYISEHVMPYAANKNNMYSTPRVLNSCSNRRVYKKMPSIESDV", "experiment": "NR2A antagonist activity, Fluo-4 calcium influx in HEK293 cells", "format": "cell-based", "conditions": "glutamate 100 μM, glycine 50 μM", "procedure": "Activation of the NR2A or NR2B subtype of NMDA receptor with glutamate as an agonist and glycine co-agonist on these cells results in calcium influx, which can be monitored with fluorescent indicator Fluo-4.\nFor experiments, the cells were seeded onto poly-D-lysine-coated 96-well black plates with clear bottom (Corning) at a density of ^˜50,000 cells/well. After overnight culture, the growth medium was removed from the wells and the cells were incubated at 37° C. for 60 min in Hanks buffer containing 4 μM fluo-4-AM (Invitrogen) and 0.1% bovine serum albumin (BSA). After dye-loading, the cells were washed three times with Hanks buffer and incubated for 10 min at room temperature with various concentrations of test compounds prepared in Hanks buffer with 0.1% BSA. The cell plates were placed onto FDSS μCell fluorescence reader (Hamamatsu). After 20 sec reading of background fluorescence, agonist glutamate at final 100 μM and co-agonist glycine at final 50 μM were added to the cells to activate the receptor, and the resulting fluorescence changes were recorded and quantified. Based on the changes in fluorescence intensity, the pharmacological effect of test compounds were analyzed and the IC50 values derived from a non-linear least squares fitting of the concentration-dependent response to a standard logistic equation using Prism (Graphpad, Inc): Amplitude=Max Amplitude/(1+(IC50/[antagonist])^n)."}, "[2]": {"test_system": "KCl-induced cortical spreading depression", "experiment": "Cortical spreading depression (CSD), aura phase of migraine model", "format": "in vivo", "conditions": "rats, mesylate salt", "experimental": "The cortical spreading depression model is utilized to investigate whether treatment with compounds of the present invention affect electrophysiological and hemodynamic events in a rat model of migraine.\nRats were anesthetized with 5% isoflurane (in 70% N2O and 30% O2; flow 300 ml/min) and placed in a stereotactic frame. […] The rectal temperature was maintained at 37.0±1.0° C. with a homeothermic blanket system. The skin was opened by a medial incision and retracted laterally. Three burr holes were drilled under saline cooling over the right hemisphere at the following coordinates (mm from bregma): (1) posterior 4.5, lateral, 2.0 (occipital cortex): KCl application site; (2) posterior 0.5, lateral 2.0 (parietal cortex): LDF recording site; (3) anterior 2, lateral 2 (frontal cortex): DC potential recording site. A laser-Doppler flow probe (Oxyflow, Oxford Optronics, UK) to monitor CBF and an invasive Ag/AgCl electrode for measuring direct current (DC) potential shifts were placed in the parietal and frontal cortex burr holes on the intact dura and in the cortex, respectively. The laser-Doppler flow probe was positioned in an area free of large pial and dural vessels to minimize a large-vessel contribution to the signal. For the DC-potential measurement, a reference electrode was fixed in the neck. Dura overlying the occipital cortex was gently removed and care was taken to avoid bleeding. After surgical preparation, the cortex was allowed to recover for 15 minutes under saline irrigation. A cotton ball (2 mm diameter) soaked with 1M KCl was placed on the pial surface and kept moist by placing 5 μl of KCl solution every 15 minutes. Test compound or vehicle was administered ten (10) minutes prior to CSD initiation. […] The number of KCl-induced CSDs was counted for 2 hours. The CBF and DC-potentials were monitored continuously starting from 5 minutes before KCl exposure.\nTest compound E1-1.2 was administered as a mesylate salt (mpk based on molecular weight of the mesylate salt).\nThe data was collected in Windaq acquisition software (Dataq Instruments, USA) at 20 kHz. The raw data was analyzed in Clampfit program (Axon Instruments, USA). The signals were low pass filtered (cut off range 5-10000 Hz) that CSD episodes in DC and CBF could be confirmed. The following parameters were analyzed: i) the number, duration and amplitude of DC-potentials, and ii) the number and amplitude of CBF events.\nDoses were given as milligram per kilogram (mpk). […] Bars represent mean±Standard Error of Mean (SEM), and differences were considered to be statistically significant at the P<0.05 level (n=8, * different from vehicle group). Statistical analysis was performed using StatsDirect statistical software. Differences between groups were analyzed by using 1-way ANOVA and Dunnett's post hoc test."}, "[3]": {"test_system": "electroconvulsive threshold (tonic convulsions)", "experiment": "Electroconvulsive Threshold Test (ECT)", "format": "in vivo, rats", "conditions": "rats, 3, 10 and 30 mpk p.o., mesylate salt", "experimental": "Rats were administered ECS (rectangular current: 0.6 ms pulse width, 1.5 s duration, 200 Hz) via earclip electrodes connected to a constant current shock generator (Ugo Basile: type 7801). Test compounds were administered by oral gavage (p.o.) 1 hour before the test at a dose volume of 5 mL/kg.\nTreatment groups of 20 rats were exposed to ECS as follows: The first animal was exposed to 30 mA of ECS. […] (increases of 5 mA) until the first tonic convulsion was observed. Once the first tonic convulsion was observed, the intensity of ECS was decreased by 2 mA for the next animal and then decreased or increased by 2 mA from animal to animal depending on whether the previous animal convulsed or not. If the first animal did convulse (tonic convulsions) within 5 seconds, animal n°2 is exposed to 25 mA, etc . . . (decreases of 5 mA) until the absence of tonic convulsions was observed. At this point, the intensity of ECS was increased by 2 mA for the next animal and then decreased or increased by 2 mA from animal to animal depending on whether the previous animal convulsed or not. The minimum current intensity applied is 5 mA and the maximum 95 mA. The first 5 animals serve to approach threshold current and were not included in the analysis. The results are presented as the mean current intensity administered to the final 15 animals of a group. The test was performed blind. A positive percent change indicates an anticonvulsant effect. A negative percent change indicates a proconvulsant effect. The test substance was evaluated at 4 doses, typically using 0.5% dimethylsulfoxide, 4% hydroxypropyl-b-cyclodextrin water as a vehicle, and administered p.o. 60 minutes before ECS, and compared with a vehicle control group. Diazepam (16 mg/kg p.o.), administered under the same experimental conditions, was used as reference substance. The experiment included 6 groups. Data with the test substance was analyzed by comparing treated groups with vehicle control using one-way ANOVA followed by Dunnett's t tests."}},
  "data": [
    {"smiles": "Cc1ccc(COC(=O)N2CC[C@H](CNc3nccn4cnnc34)C(F)(F)C2)cc1", "note": "[Compound E1-1.2, (+)-R-4-methylbenzyl 4-(([1,2,4]triazolo[4,3-a]pyrazin-8-ylamino)methyl)-3,3-difluoropiperidine-1-carboxylate]", "values": [
      {"measurement": "cumulative time spent on nociceptive behavior in phase I (0-5 mins)", "setting": "[1]", "result": "decreased"},
      {"measurement": "cumulative time spent on nociceptive behavior in phase II (20-35 mins)", "setting": "[1]", "result": "decreased"},
      {"measurement": "IC50", "setting": "cloned human NR1/NR2A", "result": "> 10", "unit": "µM"},
      {"measurement": "number of CBF events vs vehicle", "setting": "[2]; 10 mg/kg", "result": "decreased"},
      {"measurement": "number of DC potentials vs vehicle group", "setting": "[2]; 3 mpk, 10 mpk and 30 mpk", "result": "significantly decreased"},
      {"measurement": "magnitude of CBF vs vehicle", "setting": "[2]", "result": "unchanged"},
      {"measurement": "amplitude of DC potentials vs vehicle", "setting": "[2]; various doses", "result": "not statistically different"},
      {"measurement": "duration of DC potentials vs vehicle", "setting": "[2]; various doses", "result": "not statistically different"},
      {"measurement": "activity on electroconvulsive threshold", "setting": "[3]", "result": "robust anticonvulsant activity"}
    ]}
  ]
}
